# Assay results from article PMC10287695, “Non-covalent inhibitors of thioredoxin glutathione reductase with schistosomicidal activity in vivo” (Nature Communications, 2023).
# Where two headings read alike, the source gives them in different places.
# What was measured:
# Human GR = target: T1, Human GR (Homo sapiens, UniProt P00390); assay: Human GR enzyme inhibition (GSSG reduction, NADPH oxidation); format: biochemical
# T1 construct: made in house
# T1 sequence (P00390 44-522): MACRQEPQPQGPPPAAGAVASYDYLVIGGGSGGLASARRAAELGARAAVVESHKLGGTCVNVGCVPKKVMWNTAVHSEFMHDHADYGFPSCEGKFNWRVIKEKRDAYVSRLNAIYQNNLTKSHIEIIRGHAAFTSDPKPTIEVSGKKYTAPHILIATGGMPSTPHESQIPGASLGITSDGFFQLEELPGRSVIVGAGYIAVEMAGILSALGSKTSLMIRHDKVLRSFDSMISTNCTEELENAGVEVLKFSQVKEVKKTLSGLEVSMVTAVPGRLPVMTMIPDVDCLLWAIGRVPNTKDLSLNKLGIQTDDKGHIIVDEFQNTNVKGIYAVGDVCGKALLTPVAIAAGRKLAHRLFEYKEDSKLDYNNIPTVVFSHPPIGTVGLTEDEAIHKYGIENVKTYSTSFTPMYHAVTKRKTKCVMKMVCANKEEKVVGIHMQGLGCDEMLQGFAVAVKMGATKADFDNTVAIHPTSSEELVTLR
# PfTrxR = target: T2, PfTrxR (Plasmodium falciparum, UniProt Q25861); assay: P. falciparum TrxR enzyme inhibition; format: biochemical; details: for PfTrxR % inhibition at 50 µM: the highest concentration tested
# T2 construct: 6-His (N); made in house; host or cells: E. coli BL21 (DE3)
# T2 sequence (Q25861 1-541): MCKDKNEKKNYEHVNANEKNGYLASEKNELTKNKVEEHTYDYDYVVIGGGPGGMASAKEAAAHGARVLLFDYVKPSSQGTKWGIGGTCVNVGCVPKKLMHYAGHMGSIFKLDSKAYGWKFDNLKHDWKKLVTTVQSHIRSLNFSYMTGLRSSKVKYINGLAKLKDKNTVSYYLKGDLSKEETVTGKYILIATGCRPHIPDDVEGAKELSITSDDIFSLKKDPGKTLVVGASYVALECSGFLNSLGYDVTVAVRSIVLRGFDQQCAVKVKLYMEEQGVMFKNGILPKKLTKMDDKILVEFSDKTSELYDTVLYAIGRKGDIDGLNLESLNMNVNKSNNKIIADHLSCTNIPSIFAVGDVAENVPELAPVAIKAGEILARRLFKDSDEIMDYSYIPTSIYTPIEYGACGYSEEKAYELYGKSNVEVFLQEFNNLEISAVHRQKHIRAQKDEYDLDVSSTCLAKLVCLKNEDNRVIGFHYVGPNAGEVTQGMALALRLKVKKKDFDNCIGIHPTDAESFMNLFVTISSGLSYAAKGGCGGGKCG
# Procedure: Recombinant TGR, human TrxR1, B. malayi (Bm)TrxR and human GR proteins were expressed and purified as described[20],[69],[79]. The codon optimized sequence for P. falciparum (PfTrxR, https://www.ncbi.nlm.nih.gov/protein/CAA60574.1/) with an N-terminal 6-His tag was synthesized and inserted into pET15b (GenScript) and expressed in BL21 (DE3) cells and purified as described for human GR[20]. TGR and TrxR enzyme inhibition assays were performed in triplicate at 25 °C as described[20] in 0.1 M potassium phosphate (pH 7.4), 10 mM EDTA, 100 µM NADPH and 0.01% Tween-20. TGR, human TrxR1 and BmTrxR (all at 4 nM) and PfTrxR (50 nM) were preincubated with the compounds for 15 min. The reaction was started with addition of an equal volume of DTNB (6 mM) and NADPH (100 µM) and the increase in A412 during the first 3 min was recorded. […] The reaction was preincubated for 15 min. Activity was initiated with the addition of 1 mM GSSG and 100 μM NADPH and initial rates of NADPH oxidation were monitored at 340 nm. The reactions were done in triplicate. The IC50 was calculated in GraphPad Prism.
# [1] = Cytotoxicity in mammalian cells (Cell Titer Glo); format: cell-based; details: African green monkey, Vero cells
# Procedure: Following overnight incubation, formulated DMSO-compound stock solutions were diluted with DMEM at <1% DMSO final concentrations. […] Vero cells treated similarly with different concentrations of PZQ, MZM and AF (Cayman Chemicals) were used as positive controls.
# [2] = hGR, 15 minutes pre-incubation, compound 15 µM, read-out: % inhibition
# [3] = hGR, 15 minutes pre-incubation, compound 30 µM, read-out: % inhibition
# [4] = hGR, 6 hours pre-incubation, compound 15 µM, read-out: % inhibition
# [5] = hGR, 6 hours pre-incubation, compound 30 µM, read-out: % inhibition
# [6] = hGR, 15 minutes pre-incubation, compound 66.7 µM, read-out: % inhibition
# [7] = hGR, 6 hours pre-incubation, compound 66.7 µM, read-out: % inhibition
# [8] = read-out: PfTrxR % inhibition at 50 µM
# [9] = hGR, 15 minutes pre-incubation, compound 15 µM
# [10] = hGR, 15 minutes pre-incubation, compound 30 µM
# [11] = hGR, 15 minutes pre-incubation, compound 66.7 µM
# [12] = hGR, 6 hours pre-incubation, compound 15 µM
# [13] = hGR, 6 hours pre-incubation, compound 30 µM
# [14] = hGR, 6 hours pre-incubation, compound 66.7 µM
# [15] = 5 µM, relative to untreated control
# [16] = 10 µM, relative to untreated control
# [17] = 25 µM, relative to untreated control
# [18] = 35 µM, relative to untreated control
# [19] = 50 µM, relative to untreated control
smiles,measurement,setting,value
Cc1oc(-c2ccc3c(c2)OCO3)nc1CN[C@@H]1C[C@@H]2C[C@H]([C@H]1C)C2(C)C [Compound 1],Human GR (inhibition at 66.7 µM),Human GR; 66.7 µM,n.i.
same,inhibition at 15 µM,Human GR; [2],-1.22%
same,inhibition at 30 µM,Human GR; [3],-0.832%
same,inhibition at 15 µM,Human GR; [4],-0.519%
same,inhibition at 30 µM,Human GR; [5],-1.06%
same,PfTrxR % inhibition at 50 µM,PfTrxR,n.i.
same,inhibition at 10 µM,"PfTrxR; PfTrxR, 10 µM compound, mean of 3 replicates, read-out: % inhibition",-2.06%
same,inhibition at 25 µM,"PfTrxR; PfTrxR, 25 µM compound, mean of 3 replicates, read-out: % inhibition",-2.16%
same,inhibition at 50 µM,"PfTrxR; PfTrxR, 50 µM compound, mean of 3 replicates, read-out: % inhibition",-1.29%
same,"viability at 24 h, 5 µM",[1]; Conc. 5 µM,94.7%
same,"viability at 24 h, 10 µM",[1]; Conc. 10 µM,94.6%
same,"viability at 24 h, 25 µM",[1]; Conc. 25 µM,94.3%
same,"viability at 24 h, 35 µM",[1]; Conc. 35 µM,83.3%
same,"viability at 24 h, 50 µM",[1]; Conc. 50 µM,72.5%
CCc1ccccc1-c1nc(CN[C@@H]2C[C@@H]3C[C@H]([C@H]2C)C3(C)C)c(C)o1 [Compound 2],Human GR (inhibition at 66.7 µM),Human GR; 66.7 µM,n.i.
same,inhibition at 15 µM,Human GR; [2],-0.995%
same,inhibition at 30 µM,Human GR; [3],-1.9%
same,inhibition at 66.7 µM,Human GR; [6],-0.827%
same,inhibition at 15 µM,Human GR; [4],-5.17%
same,inhibition at 30 µM,Human GR; [5],-3.97%
same,inhibition at 66.7 µM,Human GR; [7],-3.29%
same,inhibition at 10 µM,PfTrxR,-8.06%
same,inhibition at 25 µM,PfTrxR,-45.1%
same,inhibition at 50 µM,PfTrxR,-32.7%
same,PfTrxR % inhibition at 50 µM,PfTrxR,n.i.
same,"viability at 24 h, 5 µM",[1]; Conc. 5 µM,99.8%
same,"viability at 24 h, 10 µM",[1]; Conc. 10 µM,98.9%
same,"viability at 24 h, 25 µM",[1]; Conc. 25 µM,95.6%
same,"viability at 24 h, 35 µM",[1]; Conc. 35 µM,75.4%
same,"viability at 24 h, 50 µM",[1]; Conc. 50 µM,53.1%
C#CCN(Cc1nc(-c2ccccc2)oc1C)[C@@H]1C[C@@H]2C[C@H]([C@H]1C)C2(C)C [Compound 6],Human GR (inhibition at 66.7 µM),Human GR; 66.7 µM,n.i.
same,inhibition at 15 µM,Human GR; [2],-0.749%
same,inhibition at 66.7 µM,Human GR; [6],-0.295%
same,inhibition at 15 µM,Human GR; [4],-0.648%
same,inhibition at 66.7 µM,Human GR; [7],-0.21%
same,"viability at 24 h, 1 µM",[1]; Conc. 1 µM,99.1%
same,"viability at 24 h, 5 µM",[1]; Conc. 5 µM,99%
same,"viability at 24 h, 10 µM",[1]; Conc. 10 µM,91.1%
same,"viability at 24 h, 25 µM",[1]; Conc. 25 µM,86.8%
same,"viability at 24 h, 50 µM",[1]; Conc. 50 µM,79.9%
same,"viability at 24 h, 100 µM",[1]; Conc. 100 µM,63.9%
Cc1oc(-c2ccccc2)nc1CN[C@@H]1C[C@@H]2C[C@H]([C@H]1C)C2(C)C [Compound 3],Human GR (inhibition at 66.7 µM),Human GR; 66.7 µM,n.i.
same,inhibition at 50 µM,PfTrxR; [8],12%
C[C@@H]1[C@H]2C[C@@H](C[C@H]1NCc1nc3ccccc3n1C)C2(C)C [C12],hGR % inhibition,"Human GR; 15 minutes pre-incubation, 15 µM",-0.9179%
same,hGR % inhibition,"Human GR; 15 minutes pre-incubation, 30 µM",-2.193%
same,hGR % inhibition,"Human GR; 15 minutes pre-incubation, 66.7 µM",-0.3071%
same,hGR % inhibition,"Human GR; 6 hours pre-incubation, 15 µM",-3.5243%
same,hGR % inhibition,"Human GR; 6 hours pre-incubation, 30 µM",-2.022%
same,hGR % inhibition,"Human GR; 6 hours pre-incubation, 66.7 µM",-0.874%
C[C@@H]1[C@H]2C[C@@H](C[C@H]1NCc1nc3ccccc3n1C)C2(C)C [Compound 12],Human GR (inhibition at 66.7 µM),Human GR; 66.7 µM,n.i.
Cc1oc(-c2ccccc2)nc1CN[C@@H]1C[C@@H]2C[C@H]([C@H]1C)C2(C)C [C3],% inhibition,Human GR; [9],-2.234%
same,% inhibition,Human GR; [10],-5.497%
same,% inhibition,Human GR; [11],-7.805%
same,% inhibition,Human GR; [12],-0.8033%
same,% inhibition,Human GR; [13],-0.8345%
same,% inhibition,Human GR; [14],-0.3955%
"C[C@@H]1N=C(c2ccccc2Cl)c2cc([N+](=O)[O-])ccc2NC1=O [MZM, meclonazepam, reference compound]","viability at 24 h, 5 µM",[1]; [15],99.8%
same,"viability at 24 h, 10 µM",[1]; [16],98.1%
same,"viability at 24 h, 25 µM",[1]; [17],92.9%
same,"viability at 24 h, 35 µM",[1]; [18],90.8%
same,"viability at 24 h, 50 µM",[1]; [19],87%
Cc1oc(C2CCCCC2)nc1CN[C@@H]1C[C@@H]2C[C@H]([C@H]1C)C2(C)C [Compound 4],Human GR (inhibition at 66.7 µM),Human GR; 66.7 µM,n.i.
same,inhibition at 10 µM,PfTrxR,1.8%
same,inhibition at 25 µM,PfTrxR,4.57%
same,inhibition at 50 µM,PfTrxR,18.1%
same,inhibition at 50 µM,PfTrxR; [8],18%
C[C@@H]1[C@H]2C[C@@H](C[C@H]1NCc1cc(-c3ccccc3)[nH]n1)C2(C)C [Compound 11],Human GR (inhibition at 66.7 µM),Human GR; 66.7 µM,n.i.
same,inhibition at 15 µM,"Human GR; 15 minutes pre-incubation, 15 µM, read-out: hGR % inhibition",-0.832%
same,inhibition at 30 µM,"Human GR; 15 minutes pre-incubation, 30 µM, read-out: hGR % inhibition",-1.45%
same,inhibition at 66.7 µM,"Human GR; 15 minutes pre-incubation, 66.7 µM, read-out: hGR % inhibition",-1.01%
same,inhibition at 15 µM,"Human GR; 6 hours pre-incubation, 15 µM, read-out: hGR % inhibition",-0.778%
same,inhibition at 30 µM,"Human GR; 6 hours pre-incubation, 30 µM, read-out: hGR % inhibition",-1.99%
same,inhibition at 66.7 µM,"Human GR; 6 hours pre-incubation, 66.7 µM, read-out: hGR % inhibition",-2.81%
Cc1oc(-c2ccc3ccccc3c2)nc1CNC1CCCCCC1 [Compound 5],Human GR (inhibition at 66.7 µM),Human GR; 66.7 µM,n.i.
same,inhibition at 10 µM,PfTrxR,-1.11%
same,inhibition at 25 µM,PfTrxR,-0.0146%
same,inhibition at 50 µM,PfTrxR,-1.37%
same,PfTrxR % inhibition at 50 µM,PfTrxR,n.i.
Cc1oc(-c2ccc3ccccc3c2)nc1CNC1CCCCCC1 [C5],% inhibition,Human GR; [9],-0.1784%
same,% inhibition,Human GR; [10],-0.6429%
same,% inhibition,Human GR; [11],-2.462%
same,% inhibition,Human GR; [12],-0.4334%
same,% inhibition,Human GR; [13],-1.271%
same,% inhibition,Human GR; [14],-0.3907%
"O=C(C1CCCCC1)N1CC(=O)N2CCc3ccccc3C2C1 (centres unmarked) [PZQ, praziquantel]","viability at 24 h, 5 µM",[1]; [15],97.1%
same,"viability at 24 h, 10 µM",[1]; [16],98.3%
same,"viability at 24 h, 25 µM",[1]; [17],92.3%
same,"viability at 24 h, 35 µM",[1]; [18],89.1%
same,"viability at 24 h, 50 µM",[1]; [19],88.9%
